Experimental data reported in patent publication US20240210412A1, “SULFONYL-TRIAZOLE COMPOUNDS USEFUL AS LIGANDS AND INHIBITORS OF PROSTAGLANDIN REDUCTASE 2” (University of Virginia Patent Foundation, priority 2021, published 2024).
Entries after “also recorded” stand apart in the source; their conditions may differ.

How the values were obtained:
Type in all cases: cell-based
[1] = target: T1, PTGR2 (Homo sapiens, UniProt Q8N8N7); assay: gel-based ABPP, HHS-475 probe, HEK293T cells expressing recombinant PTGR2; conditions: live HEK293T cells, ligand 25 μM or varying, 2 h; HHS-475 100 μM
T1 construct: host or cells: HEK293T
Procedure: HEK293T cells at 30-50% confluency were transfected with 2.6 μg of FAH or PTGR2 plasmid DNA in a serum-free media/polyethyleneimine solution for 48 hrs. The cells were washed once with warm, sterile DPBS (1×, 5 mL), and then 10 mL of serum-free media (supplemented with 1% L-glutamine) containing either DMSO or SuTEx fragment (in DMSO) was added. After 2 hrs, the cells were treated with 100 μM of SuTEx alkyne probe (HHS-475, 10 μL of 1000× DMSO stock) and incubated for an additional 2 hrs. The media was aspirated and cells washed with cold PBS (5 mL) and harvested. Cells were spun at 500×g for 5 min at 4° C. and supernatant was removed. Pellets were resuspended in 1 mL of cold DPB S and spun at 1,400×g for 3 min at 4° C. and supernatant was removed. The cells were lysed in PBS by sonication and fractionated (100,000×g, 45 min, 4° C.). The soluble fraction was diluted to 1 mg/mL in PBS and 49 μL was used for analysis. […] The samples were analyzed by SDS-PAGE (30 μL) and imaged by in-gel fluorescence scanning.
Confirmatory studies were also performed on prostaglandin reductase 2 (PTGR2) because of its role in the reduction of the bioactive lipid, 15-keto-PGE2^[17]. […] The remaining fluorescent signal detected on PTGR2 Y100F mutant protein is likely due to probe labeling of additional tyrosine sites identified on wild-type protein.
To assess the PTGR2 inhibitory activity of AMC-0702 and AMC-0703, HEK293T cells expressing PTGR2 were pretreated with vehicle, HHS-0101 (25 μM), HHS-0701 (25 μM), AMC-0702 (25 μM-0.1 μM), or AMC-0703 (25 μM-0.1 μM) for 2 hours followed by HHS-475 probe labelling in live cells (25 μM, 2 hours). Cells were lysed and probe-modified PTGR2 in proteomes detected by copper-catalyzed azide-alkyne cycloaddition conjugation of rhodamine-azide, SDS-PAGE, and in-gel fluorescence scanning. Inhibitory activity of compounds is determined by reductions in fluorescent band intensity from HHS-475 probe labeling of proteins detected in proteomes. […]

[2] = target: T2, P62277 (Homo sapiens, UniProt P62277); assay: SILAC LC-MS ABPP; conditions: 25 μM 2 h, live DM93 cells
T2 construct: performing SuTEx compound screening directly in cells; endogenous in cells; host or cells: DM93 cells (SILAC)
How it was run: (§1)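 Competitive activity-based profiling in isotopically labelled DM93 melanoma cells. Heavy cells received 25 μM sulfonyl-triazole ligand and light cells vehicle, each for 2 h at 37 °C, before 2 h with 100 μM HHS-475. Labelled soluble proteins were tagged via CuAAC, combined, digested and enriched before LC-MS/MS.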

[3] = target: T3, Q14980 (Homo sapiens, UniProt Q14980); assay: SILAC LC-MS ABPP; conditions: 25 μM 2 h, live DM93 cells
T3 construct: performing SuTEx compound screening directly in cells; endogenous in cells; host or cells: DM93 cells (SILAC), soluble fraction
How it was run: as §1

T1 sequence (Q8N8N7 whole entry): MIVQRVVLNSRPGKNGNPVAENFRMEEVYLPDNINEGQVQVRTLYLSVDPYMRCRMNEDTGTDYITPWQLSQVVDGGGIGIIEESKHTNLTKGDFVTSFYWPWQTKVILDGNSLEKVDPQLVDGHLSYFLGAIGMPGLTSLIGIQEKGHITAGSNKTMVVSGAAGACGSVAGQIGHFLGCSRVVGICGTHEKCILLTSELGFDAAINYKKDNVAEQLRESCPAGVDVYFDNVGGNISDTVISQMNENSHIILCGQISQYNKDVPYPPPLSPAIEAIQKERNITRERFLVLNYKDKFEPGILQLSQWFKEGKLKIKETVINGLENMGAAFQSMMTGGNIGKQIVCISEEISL
T3 sequence (Q14980 whole entry): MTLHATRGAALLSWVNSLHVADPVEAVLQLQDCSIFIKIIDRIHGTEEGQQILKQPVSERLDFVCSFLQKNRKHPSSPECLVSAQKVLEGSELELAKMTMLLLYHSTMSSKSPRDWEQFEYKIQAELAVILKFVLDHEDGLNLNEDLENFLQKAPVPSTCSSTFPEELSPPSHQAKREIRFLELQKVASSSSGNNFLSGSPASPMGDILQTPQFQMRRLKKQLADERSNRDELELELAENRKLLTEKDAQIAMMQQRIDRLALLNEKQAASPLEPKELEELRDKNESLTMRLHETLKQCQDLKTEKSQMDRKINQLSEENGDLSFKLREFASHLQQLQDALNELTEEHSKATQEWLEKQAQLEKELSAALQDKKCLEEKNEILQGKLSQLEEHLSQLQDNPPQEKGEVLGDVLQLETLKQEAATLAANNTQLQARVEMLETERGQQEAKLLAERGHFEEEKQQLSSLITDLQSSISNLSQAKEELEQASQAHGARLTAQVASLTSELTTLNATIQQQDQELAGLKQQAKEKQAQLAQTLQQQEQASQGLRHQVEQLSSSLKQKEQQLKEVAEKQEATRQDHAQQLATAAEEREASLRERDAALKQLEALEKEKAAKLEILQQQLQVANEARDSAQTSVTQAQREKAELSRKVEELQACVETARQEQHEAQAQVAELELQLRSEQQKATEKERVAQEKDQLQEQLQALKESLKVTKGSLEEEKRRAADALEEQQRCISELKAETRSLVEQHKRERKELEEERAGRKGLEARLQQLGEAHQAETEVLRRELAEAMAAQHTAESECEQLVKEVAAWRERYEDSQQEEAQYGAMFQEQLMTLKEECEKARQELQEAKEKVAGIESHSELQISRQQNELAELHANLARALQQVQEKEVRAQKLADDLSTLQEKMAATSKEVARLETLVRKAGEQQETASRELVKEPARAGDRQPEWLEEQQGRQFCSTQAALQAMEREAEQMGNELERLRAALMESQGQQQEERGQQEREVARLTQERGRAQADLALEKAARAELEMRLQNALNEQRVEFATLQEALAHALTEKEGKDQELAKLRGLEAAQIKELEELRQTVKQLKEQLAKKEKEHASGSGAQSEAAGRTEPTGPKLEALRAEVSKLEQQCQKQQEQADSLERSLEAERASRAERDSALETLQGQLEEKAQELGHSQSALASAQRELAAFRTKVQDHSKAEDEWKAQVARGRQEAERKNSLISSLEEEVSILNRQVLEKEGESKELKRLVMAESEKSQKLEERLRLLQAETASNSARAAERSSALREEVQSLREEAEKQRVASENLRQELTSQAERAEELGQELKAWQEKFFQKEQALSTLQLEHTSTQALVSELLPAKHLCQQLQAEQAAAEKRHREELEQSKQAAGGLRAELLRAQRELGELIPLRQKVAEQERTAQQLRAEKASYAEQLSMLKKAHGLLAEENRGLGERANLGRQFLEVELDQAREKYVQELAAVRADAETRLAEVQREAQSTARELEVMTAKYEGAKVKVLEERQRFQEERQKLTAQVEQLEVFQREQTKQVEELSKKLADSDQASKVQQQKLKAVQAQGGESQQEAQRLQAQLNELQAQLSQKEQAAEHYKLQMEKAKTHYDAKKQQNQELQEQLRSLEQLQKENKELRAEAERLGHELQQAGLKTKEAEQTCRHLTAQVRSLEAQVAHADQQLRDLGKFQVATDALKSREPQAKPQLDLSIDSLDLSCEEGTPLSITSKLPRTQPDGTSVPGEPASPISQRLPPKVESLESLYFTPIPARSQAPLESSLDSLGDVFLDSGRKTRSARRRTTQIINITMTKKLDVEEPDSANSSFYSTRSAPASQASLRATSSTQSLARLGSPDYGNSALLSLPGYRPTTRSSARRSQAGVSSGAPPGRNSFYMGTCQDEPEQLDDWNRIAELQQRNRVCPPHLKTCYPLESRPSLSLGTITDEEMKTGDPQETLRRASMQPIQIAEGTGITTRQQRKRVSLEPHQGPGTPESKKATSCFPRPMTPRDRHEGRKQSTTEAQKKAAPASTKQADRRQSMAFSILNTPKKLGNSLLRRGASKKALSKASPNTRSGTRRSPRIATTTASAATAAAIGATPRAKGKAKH

SMILES | blockade of HHS-475 labeling of PTGR2 [1] | liganded tyrosine site 38 [2] | liganded tyrosine site 1836 [3]
O=C(c1ccc(S(=O)(=O)n2cncn2)cc1)N1CCC(c2ccccc2)CC1 [HHS-0701, (4-((1H-1,2,4-triazol-1-yl)sulfonyl)phenyl)(4-phenylpiperidin-1-yl)methanone] | could block HHS-475 labeling of PTGR2; also recorded: concentration-dependent blockade of probe labeling | – | –
O=C(NC1CC1)c1ccc(S(=O)(=O)n2cncn2)cc1 [HHS-0101, 4-((1H-1,2,4-triazol-1-yl)sulfonyl)-N-cyclopropylbenzamide] | not | HHS0101.Y (tyrosine sites that showed >80% reductions (SR >5) in probe labeling in cells treated with compounds (liganded sites)) | –
O=C(NCc1ccccc1)c1ccc(S(=O)(=O)n2cncn2)cc1 [HHS-0401, 4-((1H-1,2,4-triazol-1-yl)sulfonyl)-N-benzylbenzamide] | – | – | HHS0401.Y (tyrosine sites that showed >80% reductions (SR >5) in probe labeling in cells treated with compounds (liganded sites))
